From US20120010075A1 (priority 2009, published 2012) come the findings set out here.

Like-named read-outs stand apart in the source and are kept apart here.

The test system of data set [1] is Leptosphaeria nodorum (LEPTNO). In words: In vitro fungitoxicity of hydrazones with and without copper towards Leptosphaeria nodorum (Example 26). Conditions: 72 h at 25° C.; for inhibition of growth at 0.05 µg/mL: Parastagonospora nodorum, 72 h, read-out: LEPTNO % Inhn. Minus Copper Observed. The format is cell-based.
In the next data set the test system is Phytophthora infestans. The format is in vivo, Phytophthora infestans on tomato. Particulars: applied 24 h before inoculation, assessed 7 days after inoculation.
The mark [2] stands for this setting: copper-minus medium, test compound Concn. 0.05 μg/mL.
Setting [3] is: copper-plus medium (CuCl2 10 μM), test compound Concn. 0.05 μg/mL.
Setting [4] is: hydrazone 50 ppm with 50 μM CuCl2.2H2O, tomato late blight.
The mark [5] stands for this setting: compound 0.05 μg/mL, copper-minus medium.
The mark [6] stands for this setting: compound 0.05 μg/mL, copper-plus medium (CuCl2.2H2O).
Where [7] appears, read: hydrazone 50 ppm + 50 μM CuCl2.2H2O, tomato.

Take `C/C(=N\NC(=O)c1ccc(Cl)cc1)c1cc(Br)cc(Br)c1O` [Example 545]: the melting point – broadly, the temperature, or range, at which the solid turns liquid – is 255 to 258 °C. In addition, the inhibition of growth at 0.05 µg/mL in data set [1] (setting [2]) came to 19.6%. Also, the “LEPTNO % Inhn. Plus Copper Observed” value in data set [1] (setting [3]) turned out to be 97.9%. For the same compound, the “TLB % Control” value with Phytophthora infestans (setting [4]) was determined as 95.0%.

As for `O=C(N/N=C(\CCc1ccccc1)c1ccccc1O)c1ccccc1Cl` [Example 49], the melting point fell in the range of 173 to 177 °C. Further, in data set [1] (setting [5]), the inhibition of growth at 0.05 µg/mL was determined as 14.6%. Moreover, the “LEPTNO % Inhn. Plus Copper Observed” value in data set [1] (setting [6]) worked out at 97.1%. Moreover, in the data set on Phytophthora infestans (setting [7]), the “TLB % Control” value is 0.7%.

Regarding `O=C(N/N=C/c1cc(Cl)ccc1O)c1cccc(F)c1` [Example 420], the melting point is 205 to 224 °C. The inhibition of growth at 0.05 µg/mL in data set [1] (setting [2]) came out at 11.4%. Besides, the “LEPTNO % Inhn. Plus Copper Observed” value in data set [1] (setting [3]) worked out at 97.5%. The “TLB % Control” value in the data set with Phytophthora infestans (setting [4]) was found to be 100.0%.

Consider `O=C(N/N=C/c1cc(C(F)(F)F)cc(C(F)(F)F)c1O)c1ccccc1` [Example 295], for which the melting point is 232 to 234 °C. Besides, the inhibition of growth at 0.05 µg/mL in data set [1] (setting [5]) was 5.8%. Besides, the “LEPTNO % Inhn. Plus Copper Observed” value in data set [1] (setting [6]) is 98.0%. For the same compound, the “TLB % Control” value in the data set with Phytophthora infestans (setting [7]) was found to be 89.8%.

In the case of `C/C(=N\NC(=O)c1ccccc1C(F)(F)F)c1ccccc1O` [Example 58], the melting point was 208 to 210 °C. Besides, the inhibition of growth at 0.05 µg/mL in data set [1] (setting [5]) is 0%. The “LEPTNO % Inhn. Plus Copper Observed” value in data set [1] (setting [6]) is recorded as 95.0%. For the same compound, the “TLB % Control” value with Phytophthora infestans (setting [7]) stood at 49.0%.

With `C/C(=N\NC(=O)c1ccccc1[N+](=O)[O-])c1cc(Cl)cc(Cl)c1O` [Example 142], the melting point is 250 to 253 °C. Besides, in data set [1] (setting [5]), the inhibition of growth at 0.05 µg/mL was 1.1%. Besides, in data set [1] (setting [6]), the “LEPTNO % Inhn. Plus Copper Observed” value came to 98.2%. Further, the “TLB % Control” value in the data set on Phytophthora infestans (setting [7]) amounted to 79.0%.

With `C/C(=N\NC(=O)c1cccc(Cl)c1)c1cc(Br)cc(Br)c1O` [Example 544], the melting point lay within 255 to 256 °C. The inhibition of growth at 0.05 µg/mL in data set [1] (setting [2]) is 6.9%. Besides, the “LEPTNO % Inhn. Plus Copper Observed” value in data set [1] (setting [3]) was 97.6%. Also, the “TLB % Control” value in the data set on Phytophthora infestans (setting [4]) was found to be 97.0%.

The compound `C/C(=N\NC(=O)c1ccc(Cl)cc1)c1cccc([N+](=O)[O-])c1O` [Example 274] showed a melting point of 241 to 251 °C. For the same compound, the inhibition of growth at 0.05 µg/mL in data set [1] (setting [5]) was 0%. Also, the “LEPTNO % Inhn. Plus Copper Observed” value in data set [1] (setting [6]) worked out at 96.3%. Besides, the “TLB % Control” value with Phytophthora infestans (setting [7]) stood at 89.0%.

`O=C(N/N=C/c1cc(C(F)(F)F)cc(C(F)(F)F)c1O)c1cccc(Cl)c1` [Example 336] yielded a melting point of 230 to 233 °C. In addition, the inhibition of growth at 0.05 µg/mL in data set [1] (setting [2]) is 16.6%. For the same compound, the “LEPTNO % Inhn. Plus Copper Observed” value in data set [1] (setting [3]) is given as 97.8%. Besides, the “TLB % Control” value in the data set on Phytophthora infestans (setting [4]) was 98.0%.

Compound `C/C(=N\NC(=O)c1ccccc1Br)c1ccc(Cl)cc1O` [Example 462] yielded a melting point of 187 to 188 °C. In data set [1] (setting [2]), the inhibition of growth at 0.05 µg/mL is 0%. Besides, in data set [1] (setting [3]), the “LEPTNO % Inhn. Plus Copper Observed” value was found to be 95.0%. In addition, the “TLB % Control” value in the data set with Phytophthora infestans (setting [4]) was determined as 86.0%.

In turn, `COc1ccc(/C(C)=N/NC(=O)c2ccc(C(F)(F)F)cc2)c(O)c1OC` [Example 560] yielded a melting point of 229 to 233 °C. The inhibition of growth at 0.05 µg/mL in data set [1] (setting [2]) was 1.3%. In data set [1] (setting [3]), the “LEPTNO % Inhn. Plus Copper Observed” value worked out at 90.7%. Besides, the “TLB % Control” value in the data set with Phytophthora infestans (setting [4]) is given as 65.0%.

`O=C(N/N=C/c1cc(Cl)cc(C(F)(F)F)c1O)c1cccc(Cl)c1` [Example 380] gave a melting point of 228 to 229 °C. Also, the inhibition of growth at 0.05 µg/mL in data set [1] (setting [2]) is 36.1%. Besides, the “LEPTNO % Inhn. Plus Copper Observed” value in data set [1] (setting [3]) is 98.3%. In the data set on Phytophthora infestans (setting [4]), the “TLB % Control” value amounted to 100.0%.

`Cc1ccc(C(=O)N/N=C(\CCc2ccccc2)c2ccccc2O)c(C)c1` [Example 35]: the melting point was in the range of 162 to 166 °C. Further, the “LEPTNO % Inhn. Minus Copper Observed” value in data set [1] (setting [5]) is 3.8%. Moreover, the “LEPTNO % Inhn. Plus Copper Observed” value in data set [1] (setting [6]) came to 96.5%. In addition, the “TLB % Control” value in the data set with Phytophthora infestans (setting [7]) is 0.0%.

The compound `Cc1ccc(C(=O)N/N=C/c2cc(Cl)cc(Cl)c2O)c(O)c1` [Example 308] came in with a melting point of 262 to 269 °C. The inhibition of growth at 0.05 µg/mL in data set [1] (setting [2]) was determined as 37.2%. For the same compound, in data set [1] (setting [3]), the “LEPTNO % Inhn. Plus Copper Observed” value was found to be 97.7%. Moreover, the “TLB % Control” value with Phytophthora infestans (setting [4]) came out at 96.0%.

The compound `C/C(=N\NC(=O)c1cccc(C)c1)c1cc(C(F)(F)F)ccc1O` [Example 529] gave a melting point of 235 to 238 °C. Besides, in data set [1] (setting [2]), the inhibition of growth at 0.05 µg/mL came to 15.3%. Moreover, the “LEPTNO % Inhn. Plus Copper Observed” value in data set [1] (setting [3]) turned out to be 97.7%. Moreover, the “TLB % Control” value in the data set with Phytophthora infestans (setting [4]) was 46.0%.
